Consider 21 molecules from US7923465B2, “Cannabinoid receptor ligands, pharmaceutical compositions containing them, and process for their preparation” (priority 2005, dated 2011).

One series addresses CB1 (Rattus norvegicus, UniProt P20272). Briefly: Rat CB1 receptor binding using brain membrane, [3H]SR141716A displacement (Protocol I). More on the design: CB1 receptor present in a rat brain membrane preparation; from tissue; host or cells: rat brain membrane; inhibition: dose or concentration left out as unconfirmed. The settings on record: for inhibition: 1 h. Here is the method: I. In Vitro Protocol for Rat CB1 Receptor Binding Using Brain Membrane
In this assay, [^3H]SR141716A (5-(4-chlorophenyl)-1-(2,4-dichlorophenyl)-4-methyl-N-(1-piperidyl)pyrazole-3-carboxamide) was used to bind the CB1 receptor present in a rat brain membrane preparation which can be displaced by unlabeled ligands having affinity to the CB1 receptor.
The assay was performed according to the modified method of Thomas et al., 1998 (JPET 285: 285-292). The total reaction mixture ([…]) contained Tris-BSA buffer (50 mM Tris, pH 7.4 with 1.5% BSA) or unlabeled SR141716A […] or test samples […], [^3H] SR141716A (2 nM) and […] of rat brain membrane. The non-specific binding was defined by […] of SR141716A. The assay mixture was incubated at 37° C. for 1 hour. The reaction was then stopped by rapid filtration under vacuum using Whatman GF/B-96 micro filter plate. A scintillation cocktail was added and radioactive counts were measured using a Topcount beta scintillation counter.
The standard and test sample dilutions were made in an assay buffer containing either ethanol or DMSO at a final concentration of 1%.
(§1) The percent (%) displacement by a test ligand was calculated by comparing the specific bound values.

A further series deals with hCB2 (Homo sapiens, UniProt P34972). The experiment in a line: In vitro binding assay using hCB2-CHO membranes, [3H]-CP-55,940 displacement (Protocol IV). More on the design: expressed in transfected cells; host or cells: CHO (hCB2-CHO, generated in-house). The note with it: for inhibition at 0.3 µM: 1 h, read-out: % Displacement Protocol IV. Here is the method:
IV. Protocol for In Vitro Assay Using hCB2-CHO Membranes:
In this assay, [^3H]-CP-55,940 was used as the radioligand to bind human CB2 receptor expressed on the membranes from CHO cells (hCB2-CHO cell line was generated in-house) which can be displaced by unlabeled ligands having affinity to the CB2 receptor.
The assay was performed according to the modified method of Ross et al., 1999 (Br. J. Pharmacol. 128, 735-743). The reaction was set up in a total volume of 200 μl in PEI (0.2%) precoated Millipore GFB filter plates. 1 mM stocks of test compounds were prepared in DMSO and tested at a final concentration of 300 nM. The non-specific binding was determined by 0.5 μM CP-55, 940. The total reaction mixture contained Tris-BSA buffer (50 mM Tris, 5 mM MgCl2, 1 mM EDTA, pH 7.4 with 0.1% BSA), unlabelled CP-55, 940 (0.5 μM) or test samples, [^3H]-CP-55, 940 (0.75 nM) and 25-50 μg of human CB2 receptor preparation. The assay mixture (with or without the test compound) was incubated at 30° C. for 1 hour. The reaction was stopped by rapid filtration under vacuum and the radioactivity on the filters was measured by liquid scintillation counting.
as §1

[1] abbreviates: rat brain membrane, [3H]SR141716A displacement.
Setting [2] is: read-out: % Displacement Protocol I, rat brain membrane, [3H]SR141716A displacement.
The mark [3] stands for this setting: rat brain membrane, [3H]SR141716A displacement, read-out: % Displacement Protocol I.
Setting [4] is: hCB2-CHO membranes, [3H]-CP-55,940 displacement.

Where a name gives a salt, the structure may show the parent alone. Read-outs that look alike come from different tables or passages of the source.

Chain of hCB2 (P34972 whole entry): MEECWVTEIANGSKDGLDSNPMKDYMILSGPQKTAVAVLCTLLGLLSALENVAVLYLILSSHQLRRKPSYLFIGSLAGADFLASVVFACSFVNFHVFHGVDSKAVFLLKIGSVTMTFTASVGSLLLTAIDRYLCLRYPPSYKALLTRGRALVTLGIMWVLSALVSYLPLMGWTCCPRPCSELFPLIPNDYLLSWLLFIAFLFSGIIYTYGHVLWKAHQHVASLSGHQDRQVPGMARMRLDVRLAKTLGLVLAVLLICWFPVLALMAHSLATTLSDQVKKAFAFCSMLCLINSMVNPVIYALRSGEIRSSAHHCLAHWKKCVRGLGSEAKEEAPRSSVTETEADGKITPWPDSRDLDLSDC
Chain of CB1 (P20272 whole entry): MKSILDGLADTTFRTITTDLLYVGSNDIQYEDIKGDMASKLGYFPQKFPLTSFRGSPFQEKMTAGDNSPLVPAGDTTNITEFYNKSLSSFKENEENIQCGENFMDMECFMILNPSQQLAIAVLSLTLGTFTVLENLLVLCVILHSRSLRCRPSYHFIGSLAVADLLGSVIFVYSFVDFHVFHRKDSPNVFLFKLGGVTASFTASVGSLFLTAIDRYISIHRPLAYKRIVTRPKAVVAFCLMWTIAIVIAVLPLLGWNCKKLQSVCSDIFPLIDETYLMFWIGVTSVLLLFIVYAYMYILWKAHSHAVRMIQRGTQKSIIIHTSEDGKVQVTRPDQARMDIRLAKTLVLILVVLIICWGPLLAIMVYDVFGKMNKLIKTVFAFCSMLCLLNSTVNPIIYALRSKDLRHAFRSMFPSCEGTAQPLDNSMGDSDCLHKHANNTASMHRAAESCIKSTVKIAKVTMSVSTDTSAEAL

As to `O=C(c1nn(-c2ccc(Cl)cc2)c2c1C1CC3CC(C1)CC2C3)N1CCCCC1` [Example 141, 7-(4′-Chlorophenyl)-6,7-diazatetracyclo[7.3.1.1^3,11.0^4,8]tetradeca-4(8)-5-dien-5-yl-piperidinomethanone], at CB1 (setting [1]), the “% Displacement Protocol I” value turned out to be 17%. With `O=C(NNc1ccccc1Cl)c1nn(-c2ccc(Cl)cc2)c2c1C1CC3CC(C1)CC2C3` [Example 124, N(7)-(2-Chlorophenylamino)-5-(4-chlorophenyl)-5,6-diazatetracyclo[7.3.1.1^3,11.0^4,8]tetradeca-4(8),6-diene-7-carboxamide hydrochloride], the inhibition on CB1 (setting [2]) stood at 80.1%. `O=C(NCc1ccccc1)c1nn(-c2ccccc2Cl)c2c1C1CCC2C1` (stereo not drawn) [Example 207, N(3)-Benzyl-1-(2-chlorophenyl)-4,5,6,7-tetrahydro-1H-4,7-methano-indazole-3-carboxamide]: the inhibition at CB1 (setting [3]) was -1.2%. For the molecule `O=C(Nc1ccccc1)c1nn(-c2ccc(Cl)cc2)c2c1C1CC3CC(C1)CC2C3` [Example 142, N(7)-Phenyl-5-(4′-chlorophenyl)-5,6-diazatetracyclo[7.3.1.1^3,11.0^4,8]tetradeca-4(8)-6-diene-7-carboxamide], the “% Displacement Protocol IV” value on hCB2 (setting [4]) worked out at 9.86%. Besides, the “% Displacement Protocol I” value on CB1 (setting [1]) was found to be 25%. On to `O=C(NCc1ccc(C(F)(F)F)cc1)c1nn(-c2ccc(Cl)cc2)c2c1C1CC3CC(C1)CC2C3` [Example 116, N(7)-(4-Trifluoromethylbenzyl)-5-(4-chlorophenyl)-5,6-diazatetracyclo[7.3.1.1^3,11.0^4,8]tetradeca-4(8),6-diene-7-carboxamide], for which the inhibition at CB1 (setting [2]) was found to be 24.9%. With `O=C(NN1CCCCC1)c1nn(-c2ccc(Cl)cc2Cl)c2c1C1c3ccccc3C2C2C(=O)N(c3ccc(Cl)cc3)C(=O)C12` (stereo not drawn) [Example 602, N(12)-Piperidino-16-(4-chlorophenyl)-10-(2,4-dichlorophenyl)-15,17-dioxo-10,11,16-triazapentacyclo[6.5.2.0^2,7.0^9,13.0^14,18]octadeca-2,4,6,9(13),11-pentaene-12-carboxamide], the “% Displacement Protocol IV” value on hCB2 (setting [4]) came out at 16.4%. Moreover, the “% Displacement Protocol I” value on CB1 (setting [1]) worked out at 4.1%.

For `O=C(Nc1cccc(Br)c1)c1n[nH]c2c1C1(c3ccc(Cl)cc3)CCC2C1` (stereo not drawn) [Example 217, N(3)-(3-Bromophenyl)-4-(4-chlorophenyl)-4,5,6,7-tetrahydro-1H-4,7-methano-indazole-3-carboxamide], at hCB2 (setting [4]), the inhibition at 0.3 µM was determined as 10.7%. Moreover, at CB1 (setting [3]), the inhibition is 20.5%.

What is called melting point is the temperature of the solid-liquid transition. For the molecule `O=C(NC1C2CC3CC(C2)CC1C3)c1nn(-c2ccc(F)cc2)c2c1C1CCC2C1` (stereo not drawn) [Example 281, N5-(Adamantan-2-yl)-3-(4-fluorophenyl)-3,4-diazatricyclo[5.2.1.0^2,6]deca-2(6),4-diene-5-carboxamide], the melting point was in the range of 196 to 198 °C. For the same molecule, on hCB2, the inhibition at 0.3 µM turned out to be 97.1%. The corresponding values for `CCC(C)(C)NC(=O)c1nn(-c2ccc(F)cc2F)c2c1C1CCC2CC1` [Example 802, N(5)-(tert-Pentyl)-3-(2,4-difluorophenyl)-3,4-diazatricyclo[5.2.2.0^2,6]undeca-2(6),4-diene-5-carboxamide] are 102 to 105 °C and 100%. Regarding `CC12CCC(C1)C(C)(C)C2NC(=O)c1nn(-c2ccc(F)cc2F)c2c1C1CCC2(C)C1(C)C` (stereo not drawn) [Example 406, N(3)-(1,3,3-Trimethylbicyclo[2.2.1]hept-2-yl)-1-(2,4-difluorophenyl)-7,8,8-trimethyl-4,5,6,7-tetrahydro-1H-4,7-methano-indazole-3-carboxamide], the melting point is 171 to 173 °C. Moreover, on hCB2, the inhibition at 0.3 µM worked out at 94.3%. `CC(C)(NC(=O)c1nn(-c2ccc(F)cc2F)c2c1C1CCC2C1)c1ccccc1Cl` (stereo not drawn) [Example 295, N5-[1-(2-Chlorophenyl)-1-methylethyl]-3-(2,4-difluorophenyl)-3,4-diazatricyclo[5.2.1.0^2,6]deca-2(6),4-diene-5-carboxamide] gave a melting point of 176 to 179 °C. Moreover, at hCB2, the inhibition at 0.3 µM was 100%.

Molecule `O=C(NC12CC3CC(CC(C3)C1)C2)c1nn(-c2ccc(F)cc2)c2c1C1CCC2C1` (stereo not drawn) [Example 283, N5-(Adamantan-1-yl)-3-(4-fluorophenyl)-3,4-diazatricyclo[5.2.1.0^2,6]deca-2(6),4-diene-5-carboxamide] registered a melting point of 189 to 191 °C. Further, on hCB2, the inhibition at 0.3 µM is 94.8%.

With `COc1ccc(-n2nc(C(=O)NN3CCCCC3)c3c2C2CC4CC(CC3C4)C2)cc1` [Example 163, N(7)-Piperidino-5-(4-methoxyphenyl)-5,6-diazatetracyclo[7.3.1.1^3,11.0^4,8]tetradeca-4(8),6-diene-7-carboxamide], the melting point was found to be 156 °C. At hCB2 (setting [4]), the inhibition at 0.3 µM turned out to be 14.5%.

In the case of `O=C(NCCc1ccc(F)cc1)c1nn(-c2ccc(Cl)cc2Cl)c2c1C1CCC2C1` (stereo not drawn) [Example 255, N(3)-[2-(4-fluorophenyl)ethyl]-1-(2,4-dichlorophenyl)-4,5,6,7-tetrahydro-1H-4,7-methano-indazole-3-carboxamide], on CB1 (setting [3]), the inhibition was 23.9%. The molecule `CC12CCC(C1)C(C)(C)C2NC(=O)c1nn(-c2ccc(F)cc2F)c2c1C1CCC2C1` (stereo not drawn) [Example 296, N(3)-(1,3,3-Trimethylbicyclo[2.2.1]hept-2-yl)-1-(2,4-difluorophenyl)-4,5,6,7-tetrahydro-1H-4,7-methano-indazole-3-carboxamide] had a melting point of 114 to 117 °C. In addition, at hCB2, the inhibition at 0.3 µM is 95.9%. In turn, `C[C@@H](NC(=O)c1nn(-c2ccc(F)cc2F)c2c1C1CC3CC(C1)CC2C3)c1ccccc1` [Example 147, N(7)-(R-1-phenylethyl)-5-(2,4-difluorophenyl)-5,6-diazatetracyclo[7.3.1.1^3,11.0^4,8]tetradeca-4(8),6-diene-7-carboxamide] came in with a melting point of 123 to 128 °C. The inhibition at 0.3 µM on hCB2 came to 37.1%. `O=C(NC1(c2ccccc2)CC1)c1nn(-c2ccc(F)cc2F)c2c1C1CCC2C1` (stereo not drawn) [Example 308, N5-(1-phenylcyclopropyl)-3-(2,4-difluorophenyl)-3,4-diazatricyclo[5.2.1.0^2,6]deca-2(6),4-diene-5-carboxamide]: the melting point was 90 °C. For the same molecule, the inhibition at 0.3 µM on hCB2 was 86.6%. As for `O=C(NCCc1ccccc1)c1nn(-c2ccc(Cl)cc2Cl)c2c1C1CCC2C1` (stereo not drawn) [Example 254, N(3)-(2-phenylethyl)-1-(2,4-dichlorophenyl)-4,5,6,7-tetrahydro-1H-4,7-methano-indazole-3-carboxamide], the inhibition on CB1 (setting [3]) was determined as 9.1%.

`CC(C)(NC(=O)c1nn(-c2ccc(F)cc2F)c2c1C1CC3CC(C1)CC2C3)c1ccccc1Cl` [Example 153, N7-[1-(2-Chlorophenyl)-1-methylethyl]-5-(2,4-difluorophenyl)-5,6-diazatetracyclo[7.3.1.1^3,11.0^4,8]tetradeca-4(8),6-diene-7-carboxamide] yielded a melting point of 145 to 147 °C. Moreover, the inhibition at 0.3 µM at hCB2 (setting [4]) amounted to 99.5%.

Molecule `CC12CCC(c3c(C(=O)NNc4ccccc4F)nn(-c4ccc(Cl)cc4Cl)c31)C2(C)C` (stereo not drawn) [Example 402, N(3)-[(2-Fluorophenyl)amino]-1-(2,4-Dichlorophenyl)-7,8,8-trimethyl-4,5,6,7-tetrahydro-1H-4,7-methano-indazole-3-carboxamide] came in with a melting point of 72 to 80 °C. The inhibition at 0.3 µM at hCB2 (setting [4]) was found to be 2.66%. For `CC12CCC(C1)C(C)(C)C2NC(=O)c1nn(-c2ccc(F)cc2)c2c1C1CC3CC(C1)CC2C3` (stereo not drawn) [Example 159, N7-(1,3,3-Trimethylbicyclo[2.2.1]hept-2-yl)-5-(4-fluorophenyl)-5,6-diazatetracyclo[7.3.1.1^3,11.0^4,8]tetradeca-4(8),6-diene-7-carboxamide], the melting point lay in the range of 139 to 141 °C. The inhibition at 0.3 µM on hCB2 was determined as 97.7%.
